Data on three compounds can be found in patent publication US4910012A, “Products containing Tc-99-m-ωalkylphosphinico-1-hydroxyalkane-1,1-diphosphonates for bone scintigraphy and a process for the preparation of these products” (Hoechst Aktiengesellschaft, priority 1988, dated 1990).

The conditions of series [1]: in words, cited from earlier work.
The subject of series [2] is osteosarcoma. Briefly: Scintigraphy in osteosarcoma model, ratio (Q) of count density in the tumor to that in the contralateral tibia. The series is classed as in vivo, Sprague-Dawley rats. Conditions: 0.01 mg i.v., 9.25 MBq Tc-99m, 4 weeks after tumor implantation. How it is done: Tc-99m-HMPD was tested on the model of osteosarcoma in Sprague-Dawley rats. […] The investigation was carried out 4 weeks after tumor implantation on a total of 30 animals. 1. Investigation schedule:
Day 1 Tc-99m-MDP (reference substance)
Scintigraphy 1, 90 and 180 minutes after injection
Storage of the scintigraphic data for the evaluation 2. Evaluation
Measurement of whole-body activity from the scintigraphic data
Ratio (Q) of the count density per unit area in the tumor to that in the contralateral tibia
Comparison of the quotient QHMPD with that for the products QMDP and QDBA-MDP.

The subject of series [3] is bone lesions. Conditions: compared with DPD and MDP; cited from earlier work.
For series [4], the system named is lesion / normal bone. Briefly: Ratio Q of Tc-99m uptake in a lesion to uptake in normal bone (own investigations). The format is in vivo. The note with it: compared with A-EDP, DMA-MDP, EA-MDP, DEA-MDP; Q=(% Tc/g of lesion)/(% Tc/g of normal bone). The text has this:
Many investigations carried out to date have been devoted to the search for compounds having a more favorable uptake ratio between the lesion and normal skeleton.

A short description of series [5]: Organ distribution of Tc-99m-HMPD in the rat 2 h after injection as a function of the amount administered (Table 3). The series is classed as in vivo. The note with it: for Bladder + urine / Blood / Bone / Kidneys / Liver / Lung / Muscle / Stomach / Thyroid: i.v., 2 h. How it is done: The product prepared as in Example 2 (pH=7) was used for the following experiment.
Organ distribution of Tc-99m-HMPD in the rat
(n = 3) 2 h after injection as a function of
the amount administered (mg) and as a % of the
injected dose per organ or tissue. The various
HMPD amounts were administered i.v. in 0.1 ml

Series [6] is described as follows: Stability of Tc-99m-HMPD by gel chromatography on polyacrylamide gel (Bio Gel P-10), up to 24 h after preparation. The series is classed as physicochemical. Conditions: for % Activity in the HMPD: eluent 0.9% NaCl. How it is done:
The labeling yield of Tc-99m-HMPD was determined, and the purity and stability were tested, by thin-layer chromatographic methods, gel filtration and HPLC.
2. The stability for a period of up to 24 h after preparation was tested by gel chromatography on polyacrylamide gel (Bio Gel® P-10, manufactured by Bio-Rad, California, USA) using 0.9% NaC1 solution as eluent (FIG. 1). The proportion of the activity in the HMPD, that in the form of pertechnetate and that remaining on the column were measured (Table 1). The latter is greater than the proportion of ^99m -Tc^4+ because non-specific adsorption of technetium to the support material is always observed.

In the case of `CCCCN(CCCC)C(P(=O)(O)O)P(=O)(O)O` [DBA-MDP, N,N-dibutylaminomethanediphosphonic acid], in series [1] (current state of knowledge), the blood clearance result is on record as “not optimal”. The bone/background ratio result in series [1] was “relatively poor”. Also, in series [2], the “Lesion quotient (Q)” value was 1.16. In series [3], the “accumulation in the lesions” value is recorded as “distinctly higher”. The “ratio Q for uptake of Tc-99m in a lesion vs normal bone” value in series [4] is recorded as “by far the highest ratios Q”.

Take “1-hydroxy-3-methylphosphinico-1,1-propanediphosphonic acid [Tc-99m-HMPD]”: in series [5] (0.001 mg), the “Bladder + urine” value is on record as 54.1 % of the injected dose per org, the Blood is 0.7 % of the injected dose per org, the Bone is reported as 32.9 % of the injected dose per org and the Kidneys was 1.51 % of the injected dose per org. Besides, in series [5] (0.001 mg), the Liver is on record as 0.27 % of the injected dose per org, the Lung is 0.080 % of the injected dose per org, the Muscle was 0.8 % of the injected dose per org and the Stomach is reported as 0.151 % of the injected dose per org. Besides, the Thyroid in series [5] (0.001 mg) is given as 0.008 % of the injected dose per org. In series [5] (0.01 mg), the “Bladder + urine” value was 55.6 % of the injected dose per org, the Blood is listed as 0.4 % of the injected dose per org, the Bone is on record as 34.7 % of the injected dose per org and the Kidneys is 1.05 % of the injected dose per org. For the same compound, in series [5] (0.01 mg), the Liver is 0.18 % of the injected dose per org, the Lung was 0.048 % of the injected dose per org, the Muscle is reported as 0.6 % of the injected dose per org and the Stomach is on record as 0.091 % of the injected dose per org. For the same compound, the Thyroid in series [5] (0.01 mg) was 0.008 % of the injected dose per org. Besides, in series [5] (0.1 mg), the “Bladder + urine” value is on record as 56.9 % of the injected dose per org, the Blood is given as 0.4 % of the injected dose per org, the Bone is given as 32.6 % of the injected dose per org and the Kidneys is listed as 0.94 % of the injected dose per org. Further, in series [5] (0.1 mg), the Liver is listed as 0.17 % of the injected dose per org, the Lung is recorded as 0.480 % of the injected dose per org, the Muscle is on record as 0.6 % of the injected dose per org and the Stomach was 0.092 % of the injected dose per org. In addition, in series [5] (0.1 mg), the Thyroid is listed as 0.011 % of the injected dose per org. In series [5] (1 mg), the “Bladder + urine” value is 59.1 % of the injected dose per org, the Blood is on record as 0.8 % of the injected dose per org, the Bone is listed as 28.7 % of the injected dose per org and the Kidneys is on record as 1.03 % of the injected dose per org. In series [5] (1 mg), the Liver was 0.22 % of the injected dose per org, the Lung was 0.079 % of the injected dose per org, the Muscle is 1.1 % of the injected dose per org and the Stomach is given as 0.090 % of the injected dose per org. For the same compound, the Thyroid in series [5] (1 mg) is 0.007 % of the injected dose per org. Also, the “liver uptake with larger administered amounts” value in series [5] (in words) was “no increase in liver uptake at the expense of skeletal accumulation”. The “Lesion quotient (Q)” value in series [2] was 1.27. Besides, in series [6] (5 min after preparation), the “% Tc-99m Residue on the column” value is on record as 6.8%, the “% Tc-99m as pertechnetate” value turned out to be 0.6% and the “% Activity in the HMPD” value was 92.6%. Moreover, in series [6] (2 h after preparation), the “% Tc-99m Residue on the column” value is 7.5%, the “% Tc-99m as pertechnetate” value came out at 0.4% and the “% Activity in the HMPD” value worked out at 92.1%. In addition, in series [6] (7 h after preparation), the “% Tc-99m Residue on the column” value is given as 4.6%, the “% Tc-99m as pertechnetate” value amounted to 0.4% and the “% Activity in the HMPD” value is 95.0%. For the same compound, in series [6] (24 h after preparation), the “% Tc-99m Residue on the column” value stood at 5.2%, the “% Tc-99m as pertechnetate” value was 0.8% and the “% Activity in the HMPD” value turned out to be 94.0%. In series [6] (summary in words), the product stability entry is recorded as “stable for a whole working day”. Besides, in series [6] (up to 24 h after preparation), the “proportion of Tc-99m activity present in the HMPD” value was “more than 90%”.

On to `O=P(O)(O)CP(=O)(O)O` [MDP, methanediphosphonic acid], for which the “Lesion quotient (Q)” value in series [2] is 1.0.
